Measured values: ChEMBL document CHEMBL3286308, “Potent and orally efficacious bisthiazole-based histone deacetylase inhibitors” (ACS Med Chem Lett, 2014)

Each molecule was assayed against Histone deacetylase 1 (Homo sapiens, UniProt Q13547).
Sequence of Histone deacetylase 1 (Q13547 whole entry): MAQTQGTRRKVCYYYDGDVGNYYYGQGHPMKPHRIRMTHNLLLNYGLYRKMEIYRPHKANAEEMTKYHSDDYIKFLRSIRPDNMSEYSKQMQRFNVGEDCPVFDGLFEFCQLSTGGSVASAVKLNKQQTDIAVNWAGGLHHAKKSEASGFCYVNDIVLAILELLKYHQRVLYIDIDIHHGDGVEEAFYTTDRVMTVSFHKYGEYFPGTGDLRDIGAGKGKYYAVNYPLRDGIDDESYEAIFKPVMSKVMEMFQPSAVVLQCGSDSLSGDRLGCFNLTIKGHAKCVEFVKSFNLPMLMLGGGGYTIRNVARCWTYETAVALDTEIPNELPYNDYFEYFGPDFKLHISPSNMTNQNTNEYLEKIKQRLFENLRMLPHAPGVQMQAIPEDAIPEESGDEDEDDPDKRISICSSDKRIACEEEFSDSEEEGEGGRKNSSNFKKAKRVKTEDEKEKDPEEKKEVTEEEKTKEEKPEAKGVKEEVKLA

| IC50 [µM] | Compound |
| --- | --- |
| 2 | CCCCCCCC(=O)SCC/C=C/[C@@H]1CC(=O)NCc2nc(cs2)-c2nc(cs2)C(=O)N[C@@H](C(C)C)C(=O)O1 |
| 16.8 | CC(C)[C@H](NC(=O)[C@]1(C)CSC(c2cscn2)=N1)C(=O)OC/C=C/CCS |
| 13.9 | Cc1nc(C2=N[C@](C)(C(=O)N[C@H](C(=O)OC/C=C/CCS)C(C)C)CS2)cs1 |

| Compound | IC50 [µM] |
| --- | --- |
| CCCCCCCC(=O)SCC/C=C/[C@@H]1CC(=O)NCc2nc(cs2)C2=N[C@@](C)(CS2)C(=O)N[C@@H](C(C)C)C(=O)O1 [LARGAZOLE] | 0.0137 |
